In US8609731B2, “Substituted tetrahydronaphthalenes, process for the preparation thereof and the use thereof as medicaments” (SANOFI, priority 2007, dated 2013):
In brackets after ≈: the same amount, converted by molar mass.

Legend:
human MCH receptor = molecular target: T1, human MCH receptor (Homo sapiens, UniProt Q99705); test: calcium mobilization assay (FLIPR); functional IC50 of MCH1R antagonists; assay type: cell-based; details: recombinant HEK293 cell line expressing human MCH receptor; calcium flux after addition of agonist MCH
T1 construct: expressed in transfected cells
From the text: Influence on the MCH Receptor In Vitro; Determination of Functional IC50 Values of MCH1R Antagonists
Cloning of the cDNA for the human MCH receptor, preparation of a recombinant HEK293 cell line which expresses the human MCH receptor, and functional measurements with the recombinant cell line took place in analogy to the description by Audinot et al. (J. Biol. Chem. 2001, 276, 13554-13562). A difference from the reference was, however, the use of the plasmid pEAK8 from EDGE Biosystems (USA) for the construction of the expression vector. The host used for the transfection was a transformed HEK cell line named “PEAK Stable Cells” (likewise from EDGE Biosystems). Functional measurements of the cellular calcium flux after addition of agonist (MCH) in the presence of ligand of the invention took place with the aid of the FLIPR apparatus from Molecular Devices (USA), using protocols of the apparatus manufacturer. The compounds of the invention show a significant inhibition (>30%) of the signal induced by the agonist at a concentration of 100 μM, preferably at 10 μM, particularly preferably at 1 μM, very particularly preferably at 100 nM and very very particularly preferably at 10 nM.

physchem = assay type: physicochemical; details: pH 7.4, aqueous buffer, kinetic from dmso stock
Experimental: A DMSO solution of the test compound (2.5 mM; 0.5 μl) is pipetted into 200 μl of an aqueous test solution (e.g. phosphate-buffered saline, 10×, 1M, Sigma, adjusted to 10 mM, pH 7.4) in a 96-well microtiter plate, and the turbidity is measured at the resulting theoretical concentration for the test compound of 6.25 μM using a nephelometer (e.g. Nephelostar Galaxy, BMG Labtech). The concentration of the test compound in the aqueous test solution is then raised to a theoretical 12.5 μM by adding further DMSO solution (2.5 mM; 0.5 μl), and the turbidity measurement is repeated. Further additions of DMSO solutions (1 μl, 2.5 mM; 0.5 μl, 10 mM; then 9×1 μl, 10 mM resulting in theoretical concentrations of 25 μM, 50 μM, 100 μM, 150 μM, 200 μM, 250 μM, 300 μM, 350 μM, 400 μM, 450 μM and 500 μM) with turbidity measurement in between complete the measurement process.
Evaluation: The turbidity values from the nephelometer are plotted against the theoretical concentration of the test compound in the aqueous test solution. As soon as a significant turbidity is detected (e.g. 5 times above the control value of the aqueous test solution) at a theoretical concentration, the level of concentration below this is stated to be the solubility limit of the test compound in the test solution. Thus, the maximum possible measurement range emerges as values <6.25 μM, 6.25−500 μM and >500 μM.

hERG channel = molecular target: T2, hERG channel (Homo sapiens, UniProt Q12809); test: hERG channel blockade, whole-cell patch clamp in CHO cells expressing hERG; assay type: cell-based; details: CHO cells with stable hERG expression, room temperature, read-out: hERG Inh. IC50
T2 construct: expressed in transfected cells; host or cells: CHO cells (ATCC), pcDNA3 vector, G418 selection
From the text: The aim of the test is to determine the concentration range in which the test compound blocks the cardiac hERG channel. Blockade of the hERG channel, which is responsible for the Ikr current in the human heart, is associated with potentially fatal arrhythmias.
For expression of the cDNA encoding the hERG channel it was cloned into the pcDNA3 vector (Invitrogen). Chinese hamster […] (CHO, American Type Culture Collection, Rockville, Md.) were transfected using lipofectamine (GIBCO/BRL, Grand Island, N.Y.) with the hERG cDNA and selected using G418 (GIBCO/BRL, Grand Island, N.Y.; 500 μg/ml). CHO cells with stable expression of the hERG channel were cultured on a HAM F-12 medium which was supplemented with 10% native bovine serum, 1× penicillin/streptomycin and 500 μg/ml G418 in an atmosphere of 95% air/5% carbon dioxide.
The cells selected for the patch clamp experiment are seeded on a plastic support 18-24 hours before the experiment. HERG channel currents are recorded at room temperature by the whole-cell variant of the patch clamp technique using an Axopatch 200B amplifier (Axon Instruments, Foster City, Calif.). The electrodes (3-6 megaohms resistance) are prepared from TW150F glass capillaries (World Precision Instruments, Sarasota, Fla.) and filled with the pipette solution (120 mM potassium aspartate, 20 mM KCl, 4 mM Na2ATP, 5 mM HEPES, 1 mM MgCl2; adjusted to pH 7.2 with KOH). The hERG channel currents are induced by a positive voltage pulse (20 mV) followed by a negative pulse (−40 mV) and are recorded for later analysis. As soon as the hERG channel current of the cell flushed with the control solution ([…], 5 mM KCl, 2.8 mM NaOAc, 1 mM MgCl2, 10 mM HEPES; 10 mM glucose, 1 mM CaCl2; adjusted to pH 7.4 with NaOH) is stable, the cell is perfused with the test compound dissolved in the above control solution (by dilution of a 10 or 100 mM DMSO solution of the test compound so that the DMSO content is no more than 0.1%). The current is followed continuously until no further changes occur. The same procedure is repeated with increasing concentrations of the test compound. The maximum amplitude of the hERG current is measured in picoAmperes (pA) for each concentration and for each cell. The maximum amplitude in pA for each concentration of the test compound is compared with that of the pure control solution in the same cell and calculated as % of the control value.
Evaluation: The test compound is tested at various concentrations in 3-5 CHO cells which express the hERG channel. The IC50 is obtained by use of nonlinear least squares regression (GraphPAD Software, San Diego, Calif.).

T2 sequence (Q12809 whole entry): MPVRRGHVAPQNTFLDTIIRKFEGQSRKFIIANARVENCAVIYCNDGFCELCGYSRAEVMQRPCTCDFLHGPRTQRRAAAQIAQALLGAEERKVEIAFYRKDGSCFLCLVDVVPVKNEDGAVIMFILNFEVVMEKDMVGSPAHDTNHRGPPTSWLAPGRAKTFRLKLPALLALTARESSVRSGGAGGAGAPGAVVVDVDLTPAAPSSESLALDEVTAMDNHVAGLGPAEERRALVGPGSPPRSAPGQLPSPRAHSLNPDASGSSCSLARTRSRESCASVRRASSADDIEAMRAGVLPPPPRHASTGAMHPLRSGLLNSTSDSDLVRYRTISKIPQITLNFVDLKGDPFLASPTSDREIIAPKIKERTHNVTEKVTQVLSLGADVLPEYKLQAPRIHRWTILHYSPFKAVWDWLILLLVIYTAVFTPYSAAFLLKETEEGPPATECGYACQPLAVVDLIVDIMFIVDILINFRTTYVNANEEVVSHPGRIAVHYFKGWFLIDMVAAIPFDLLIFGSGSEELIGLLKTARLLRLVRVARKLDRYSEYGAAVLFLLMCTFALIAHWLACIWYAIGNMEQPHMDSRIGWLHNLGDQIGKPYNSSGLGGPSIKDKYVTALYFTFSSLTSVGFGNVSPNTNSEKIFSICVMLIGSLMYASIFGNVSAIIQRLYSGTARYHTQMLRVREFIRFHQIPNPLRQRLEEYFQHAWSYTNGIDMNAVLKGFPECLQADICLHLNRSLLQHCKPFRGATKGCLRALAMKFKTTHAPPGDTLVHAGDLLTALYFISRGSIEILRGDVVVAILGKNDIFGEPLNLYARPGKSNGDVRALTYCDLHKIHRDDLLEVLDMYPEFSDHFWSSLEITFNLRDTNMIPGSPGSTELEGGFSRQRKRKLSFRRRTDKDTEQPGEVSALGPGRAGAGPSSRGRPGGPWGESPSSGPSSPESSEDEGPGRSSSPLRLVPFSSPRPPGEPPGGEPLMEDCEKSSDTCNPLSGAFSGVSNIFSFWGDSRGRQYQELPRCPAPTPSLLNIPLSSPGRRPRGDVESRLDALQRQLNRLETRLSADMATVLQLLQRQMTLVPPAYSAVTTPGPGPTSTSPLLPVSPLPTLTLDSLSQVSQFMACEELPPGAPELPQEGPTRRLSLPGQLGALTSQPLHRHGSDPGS
T1 sequence (Q99705 whole entry): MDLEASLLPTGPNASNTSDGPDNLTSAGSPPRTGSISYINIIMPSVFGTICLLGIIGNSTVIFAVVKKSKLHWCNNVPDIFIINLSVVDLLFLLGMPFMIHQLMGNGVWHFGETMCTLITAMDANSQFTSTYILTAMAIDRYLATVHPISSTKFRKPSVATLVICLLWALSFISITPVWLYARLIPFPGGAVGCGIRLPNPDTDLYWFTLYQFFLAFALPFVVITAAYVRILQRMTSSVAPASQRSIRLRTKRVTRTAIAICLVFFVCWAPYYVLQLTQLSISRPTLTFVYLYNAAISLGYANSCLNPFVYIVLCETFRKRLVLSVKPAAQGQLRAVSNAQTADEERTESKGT

IC50 (human MCH receptor) [nM]	solubility kinetic (physchem) [µM]	SMILES	IC50 (hERG channel) [nM]
110	450 (≈ 214 µg/mL)	CC1(C)CCN(Cc2ccc3c(c2)CC[C@H](NC(=O)c2ccc(OC[C@@H]4CCCO4)cc2)C3)CC1 [Example 3-166]	> 10000
630	> 500	COC1CCN(Cc2ccc3c(c2)CC[C@H](N2CCc4cc(OC[C@@H]5CCCO5)ccc4C2=O)C3)CC1 [Example 14, 2-[(S)-6-(4-Methoxypiperidin-1-ylmethyl)-1,2,3,4-tetrahydronaphthalen-2-yl]-6-[(S)-1-(tetrahydrofuran-2-yl)methoxy]-3,4-dihydro-2H-isoquinolin-1-one]	> 10000

Continued, compound first:

SMILES	IC50 (human MCH receptor) [nM]	solubility kinetic (physchem) [µM]	IC50 (hERG channel) [nM]
O=C(N[C@H]1CCc2cc(CN3CCCC3)ccc2C1)c1ccc(OC[C@@H]2CCCO2)cc1 [Example 1, N-((S)-6-Pyrrolidin-1-ylmethyl-1,2,3,4-tetrahydronaphthalen-2-yl)-4-[(S)-1-(tetrahydrofuran-2-yl)methoxy]benzamide]	90	> 500	> 30000
O=C(N[C@H]1CCc2cc(CNC3CCCCC3)ccc2C1)c1ccc(OC[C@@H]2CCCO2)cc1 [Example 3-6]	–	> 500	> 10000
CC(C)(C)CNCc1ccc2c(c1)CC[C@H](NC(=O)c1ccc(OC[C@@H]3CCCO3)cc1)C2 [Example 3-34]	100	50 (≈ 22.5 µg/mL)	> 30000
O=C(N[C@H]1CCc2cc(CN3CC4CCC3C4)ccc2C1)c1ccc(OC[C@@H]2CCCO2)cc1 (stereo partly shown) [Example 3-83]	–	> 500	> 30000
